{
  "source": "patent US9814782B2",
  "about": "“Modified antibody in which motif comprising cysteine residue is bound, modified antibody-drug conjugate comprising the modified antibody, and production method for same” (Alteogen Inc., priority 2012, dated 2017)",
  "origin": "cited, not measured here",
  "settings": "known value; read-out: IC50 value in a cell proliferation inhibition assay",
  "data": [
    {"substance": "Auristatin", "values": [
      {"measurement": "IC50", "result": "0.2 to 0.3", "unit": "nM"}
    ]}
  ]
}
